Data: patent US20220298174A1, “TETRACYCLIC COMPOUND, PREPARATION METHOD THEREFOR AND USE THEREOF” (SHANGHAI JEMINCARE PHARMACEUTICALS CO., LTD, priority 2019, published 2022)
Read-outs that look alike come from different tables or passages of the source.

Assays:
Type in all cases: cell-based
[1] = test system: NCI-H358 cells expressing KRAS-G12C; experiment: Cell proliferation assay (Cell Titer Glo), NCI-H358; conditions: Homo sapiens, 72 h, ATP content (Cell Titer Glo)
Protocol: (§1) The ability of the compounds of the present disclosure to inhibit the growth of KRAS-G12C-expressing cells was assessed by measuring cell viability and calculating GI50 values.
(§2) Tumor cell line NCI-H358 (ATCC accession No. CRL-5807) expressing KRAS-G12C was cultured in an RPMI medium supplemented with 10% fetal bovine serum and penicillin/streptomycin double antibody; tumor cell line MIA PaCa2 (ATCC CRL-1420) expressing KRAS-G12C was cultured in a DMEM medium supplemented with 10% fetal bovine serum, 2.5% horse serum and penicillin/streptomycin double antibody.
(§3) NCI-H358 and MIA-Paca2 cells were seeded on a black clear-bottom 384-well plate (PerkinElmer Cat. No. 6007460) at densities of 1000 and 800 cells, respectively, and allowed to adhere to the walls overnight (8-12 h). After the cells adhered to the walls, the diluted compounds of the present disclosure with a concentration that was 5 times that of the working solution (containing 0.1% dimethyl sulfoxide, namely DMSO, at the final concentration) was added to the experimental groups; the same dilution (containing 0.1% DMSO at the final concentration) as in the experimental groups was added to the control group. After 72 h, the amount of cell proliferation was measured by measuring ATP content using a Cell Titer Glo reagent (Promega Cat. No. G7572) according to the method described in the manuals. Steps are briefly as follows: the cell plate was taken out and equilibrated at normal temperature for 30 min; the Cell Titer Glo reagent with an equal volume to that of the culture was added; the culture plate was placed on a shaker for lysis for 2 min; the culture plate was left standing at normal temperature for 10 min; the optical signal values were read using a microplate reader EnVision (PerkinElmer).
(§4) The inhibition percentages were calculated from the data of the experimental groups relative to the DMSO group, and GI50 was calculated using the data processing software GraphPad by analyzing the inhibitory rates yielded by 9 dosing concentrations produced by 1:3 dilution of the compounds, with the results shown in Table 2.

[2] = test system: MIA PaCa2 cells expressing KRAS-G12C; experiment: Cell proliferation assay (Cell Titer Glo), MIA PaCa2; conditions: Homo sapiens, MIA PaCa-2, 72 h, ATP content (Cell Titer Glo)
Protocol: as §1, §2, §3, §4

[3] = test system: pERK (Thr202/Tyr204) in NCI-H358 cells expressing mutant RAS (G12C); experiment: Inhibition of RAS-mediated signal transduction: p-ERK ELISA normalized to Janus green
Protocol: NCI-H358 cells (ATCC accession No. CRL-5807) expressing mutant RAS (G12C) were cultured in an RPMI medium containing 10% fetal bovine serum, penicillin/streptomycin double antibody. The cells were plated on to a 96-well plate (Corning Cat. No. 3699) at 40,000 cells per well and left standing overnight to adhere to the bottom of the plate. The cells were treated with or without the compounds of the present disclosure (dimethylsulfoxide, DMSO), with a final DMSO concentration of 0.5% ensured. After 2 hours of treatment, the medium was removed, and 4% paraformaldehyde (Beyotime Cat. No. E672002-0100) was added. The resulting mixture was left standing for 20 min. After being immobilized, the cells were washed with PBS and incubated with pre-cooled methanol for 10 min to permeabilize the cell membrane. Non-specific antibody binding was blocked by incubation for 1 h with 1× blocking buffer (Thermo Cat. No. 37520).
The ERK phosphorylation level was detected by enzyme-linked immunosorbent assay (ELISA). A phospho-ERK antibody (Cell Signal Technology Cat. No. 4370) was 1:400 diluted with 1× blocking solution containing 0.05% tween 20 and added to the 96-well plate for overnight incubation at 4° C. The plate was washed 5 times with PBS containing 0.05% tween 20. An HRP-conjugated secondary antibody (Thermo Cat. No. 31460) was 1:10,000 diluted with 1× blocking buffer containing 0.05% tween 20 and added to the 96-well plate for incubation for 2 h at room temperature. The plate was washed 5 times with PBS containing 0.05% Tween and incubated with TMB (Thermo Cat. No. 4816) at room temperature for 15 min. The reaction was terminated with 1 mol/L H2SO4, and the OD values were read at a wavelength of 450 nm using an EnVision (PerkinElmer).
The total number of cells per well was measured using the Janus green staining method. The 96-well plate after the detection of the ERK phosphorylation level was washed to colorlessness with PBS and incubated with 0.1% Janus green (Abcam Cat. No. ab111622) for 10 min. After washing with double distilled water, the plate was incubated with 0.1 mol/L HCl with shaking for 10 min. The OD values were read at a wavelength of 595 nm using an EnVision (PerkinElmer).
The signal values of pERK (Thr202/Tyr204) were normalized using the signal values of Janus green, and the inhibition percentages relative to the DMSO reference were calculated after treatment with the drugs. The percentage values were subjected to four-parameter dose response curve fitting to generate IC50 values.

[4] = Homo sapiens, NCI-H358, 2 h, NCI-H358 cells, 2 hours of treatment, ELISA, read-out: p-ERK IC50 (NCI H358)
[5] = NCI-H358 cells, 2 hours of treatment, ELISA, read-out: p-ERK IC50 (NCI H358)

SMILES | GI50 [1] [nM] | GI50 [2] [nM] | IC50 [3, 4] [µM] | IC50 [3, 5] [µM] | IC50 ([3]; Homo sapiens, NCI-H358, 2 h, read-out: p-ERK IC50 (NCI H358, μM)) [µM]
C=CC(=O)N1CCN2c3nc(=O)n(-c4c(C)ccnc4C(C)C)c4cc(-c5c(O)cccc5F)c(F)c(c34)OC[C@@H]2C1 [Compound 1A] |  |  |  | 0.61 | 
C=CC(=O)N1CCN(c2ncnc3c(F)c(-c4c(O)cccc4F)c(Cl)cc23)CC1 [ARS-1620] | 510 | 1210 |  |  | 0.325
C=CC(=O)N1CCN2c3nc(=O)n(-c4c(C)ccnc4C(C)C)c4cc(-c5c(F)ccc6cc[nH]c(=O)c56)c(F)c(c34)OC[C@H]2C1 [Compound 14A] |  |  | > 10 |  | 
C=CC(=O)N1CCN2c3nc(=O)n(-c4c(C)ccnc4C(C)C)c4c(F)c(-c5c(O)cccc5F)nc(c34)OC[C@@H]2C1 [Compound 3] |  |  | 0.647 |  | 
C=CC(=O)N1CCN2c3nc(=O)n(-c4c(C)ccnc4C(C)C)c4cc(-c5c(O)cccc5F)c(F)c(c34)OC[C@H]2C1 [Compound 2] |  |  |  | 0.1 | 
C=CC(=O)N1CCN2c3nc(=O)n(-c4c(C)ccnc4C(C)C)c4cc(-c5c(O)cccc5F)c(F)c(c34)OC[C@@H]2C1 [Compound 1] |  |  |  | 0.288 | 
C=C(F)C(=O)N1CCN2c3nc(=O)n(-c4c(C)ccnc4C(C)C)c4cc(-c5c(O)cccc5F)c(F)c(c34)OC[C@H]2C1 [Compound 5A] |  |  | 0.637 |  | 
C=CC(=O)N1CCN2c3nc(=O)n(-c4c(C)ccnc4C(C)C)c4cc(-c5c(C)ccc6[nH]ncc56)c(F)c(c34)OC[C@H]2C1 (atropisomer, axis not shown) [Compound 6A] |  |  | 1.77 |  | 
C=CC(=O)N1CCN2c3nc(=O)n(-c4c(C)ccnc4C(C)C)c4cc(-c5c(O)ccc(F)c5F)c(F)c(c34)OC[C@H]2C1 (atropisomer, axis not shown) [Compound 4A] | 34 | 324 | 0.038 |  | 

More lines, main results first:

GI50 [1] [nM] | GI50 [2] [nM] | SMILES | IC50 [3, 4] [µM] | IC50 [3, 5] [µM] | IC50 ([3]; Homo sapiens, NCI-H358, 2 h, read-out: p-ERK IC50 (NCI H358, μM)) [µM]
111 | 333 | C=CC(=O)N1CCN2c3nc(=O)n(-c4c(C)ccnc4C(C)C)c4c(F)c(-c5c(O)cccc5F)nc(c34)OC[C@H]2C1 (atropisomer, axis not shown) [Compound 10A] | 0.065 |  | 
29 | 48 | C=CC(=O)N1CCN2c3nc(=O)n(-c4c(C)ccnc4C(C)C)c4cc(-c5c(O)cccc5F)c(F)c(c34)OC[C@H]2C1 [Compound 2A] | 0.053 |  | 
133 | 629 | C=CC(=O)N1CCN2c3nc(=O)n(-c4c(C)ccnc4C(C)C)c4nc(-c5c(O)cccc5F)c(F)c(c34)OC[C@H]2C1 (atropisomer, axis not shown) [Compound 7A] | 0.196 |  | 
350 | 304 | C=CC(=O)N1C[C@@H]2COc3c(F)c(-c4c(O)cccc4F)nc4c3c(nc(=O)n4-c3c(C)ccnc3C(C)C)N2[C@@H](C)C1 (single isomer, unassigned) [Compound 8A] | 0.26 |  | 
3430 | 4520 | C=CC(=O)N1CCN2c3nc(=O)n(-c4c(C)ccnc4C(C)C)c4c(F)c(-c5c(O)cccc5F)c(F)c(c34)OC[C@H]2C1 (atropisomer, axis not shown) [Compound 15A] | 6.36 |  | 
70 | 685 | C=CC(=O)N1CCN2c3nc(=O)n(-c4c(C)ccnc4C(C)C)c4cc(-c5c(N)c(Cl)cc(Cl)c5F)c(F)c(c34)OC[C@H]2C1 (atropisomer, axis not shown) [Compound 11A] | 0.052 |  | 
10 | 54 | C=CC(=O)N1CCN2c3nc(=O)n(-c4c(C)ccnc4C(C)C)c4cc(-c5c(N)cccc5F)c(F)c(c34)OC[C@H]2C1 [Compound 12A] | 0.032 |  | 
320 | 1270 | C=CC(=O)N1CCN(c2nc(=O)n(-c3c(C)ccnc3C(C)C)c3c(F)c(-c4c(O)cccc4F)ncc23)[C@@H](C)C1 [Compound 13] | 0.159 |  | 
